Assay [1] has as its target T1, PI3Kα (Homo sapiens, UniProt P42336).
T1 construct: purchased Invitrogen or Millipore
In words: KinaseGLO luminescent PI3-kinase assay, PI3Kα. Type of assay: biochemical. On the procedure: (§1) Compound Preparation: KinaseGLO assay: 30× stocks of inhibitors were prepared in DMSO. A 10 mM master stock was prepared and all other stocks were generated by serial dilution of this master stock in DMSO. The final concentration of DMSO in the kinase reaction was 3.3% (v/v).
PI3-Kinase Assay: The KinaseGLO® Luminescent Kinase Assay (Promega) is a luciferin-luciferase based luminescent assay that utilizes a proprietary thermostable luciferase to quantify the ATP remaining in a solution after a kinase reaction. The luminescent signal generated using KinaseGLO® directly correlates with ATP concentration, and therefore inversely correlates with kinase activity.
PI3K enzyme sample was thawed and diluted to 100 ng/μL in enzyme dilution buffer (50 mM HEPES, pH7.5, 3.0 mM MgCl2, 1.0 mM EGTA) and stored on ice. PI3Kα enzyme was diluted to a final concentration of 1 ng/μL in reaction buffer (for PI3Kα; 50 mM HEPES, pH7.5, 100 mM NaCl, 2.0 mM DTT, 3.0 mM MgCl2, 1.0 mM EGTA, 10 μM ATP) and gently mixed. 25 μL of this kinase reaction was then aliquoted into test wells in a Microfluor2 white 96-well plate (Thermo Scientific). As a preincubation step, 1 μl of 30× compound dilutions was added to the appropriate test wells to generate a ten point dose-response ranging from 0.0 μM-10 μM inhibitor. The enzyme-inhibitor mixture was then incubated for 30 minutes at 4° C. After this preincubation, […] (50 μM final concentration) was added to each test well to initiate the kinase reaction. Reactions were incubated at room temperature for 2 hours with moderate shaking. The KinaseGLO® luminescent reagent (Promega) was prepared according to the manufacturer's instructions. Both the KinaseGLO® buffer and substrate were allowed to thaw and equilibrate at room temperature for two hours prior to mixing and use. The PI3-kinase reaction was terminated by the addition of 30 μL of reconstituted KinaseGLO® reagent to each reaction well and then incubated in the dark for 10 minutes at room temperature. Luminescent signal was detected using a SpectraMax M5 (Molecular Devices). Maximal luminescence (no PI3K activity/maximal PI3K inhibition) was determined from reaction buffer plus SC-PI substrate only controls. The minimal signal (maximal PI3K activity) was determined by the 0.0 μM compound (DMSO only) control. IC50 values were calculated via non-linear regression using GraphPad Prism data analysis software.
Compounds were assayed against the Class I PI3Kα, PI3Kβ, PI3Kγ, PI3Kδ, PI3Kα(H1047R) and PI3Kα(E545K) in the KinaseGLO assay as described in Example 2, and against the Class IV PI3K mTOR in the radiometric assay. IC50 values (μM) were determined using 8-10 point half-log dose dilutions and calculated via nonlinear regression analysis using Graphpad Prism data analysis software.

Assay [2] concerns the target T2, MELK (Homo sapiens, UniProt Q14680).
T2 construct: purchased Invitrogen or Millipore
Description: MELK kinase assay (KinaseGLO). Type of assay: biochemical. The protocol:
as §1
MELK kinase assay: The ability of compounds to inhibit MELK was also determined using the KinaseGLO assay. Briefly, MELK enzymes was thawed and diluted to a final concentration of 2.64 ng/μL in reaction buffer (50 mM HEPES, pH7.5, 100 mM NaCl, 2.0 mM DTT, 3.0 mM MgCl2, 1.0 mM EGTA, 10 μM ATP). 19 μl of this kinase reaction mixture was aliquoted into test wells (50 ng MELK/well) in a Microfluor2 white 96-well plate (Thermo Scientific). As a preincubation step, 1 μl of 30× compound dilutions was added to the appropriate test wells to generate a ten point dose-response ranging from 0.0 μM-10 μM inhibitor, and incubated for 15 minutes at 4° C. The reaction was started by addition of 10 μL of 150 μM ZIPtide peptide substrate resuspended in reaction buffer (50 μM final concentration of ZIPtide). Reactions were incubated at room temperature for 2 hours prior to addition of 30 μL of KinaseGLO reagent and development as described. Maximal luminescence (no MELK activity/maximal MELK inhibition) was determined from reaction buffer plus peptide substrate only controls. The minimal signal (maximal MELK activity) was determined by the 0.0 μM compound (DMSO only) control. IC50 values were calculated via non-linear regression using GraphPad Prism data analysis software. […]
(§2) Compounds of the invention were assayed against the select kinases using the KinaseGLO assay (MELK) or the radiometric assay (PIM, TRKC, PDGFRα(D842V), MNK1 and mTOR). IC50 values were determined using 8-10 point half-log dose dilutions and calculated via nonlinear regression analysis using Graphpad Prism data analysis software.

Assay [3] concerns the target TRKC (Homo sapiens, UniProt Q16288). In words: Radiometric HotSpot kinase assay, TRKC. Conditions: 1 μM compound, 10 μM ATP. Type of assay: biochemical. The protocol: (§3) Kinase Profiling: The inhibitory activity of the PI3K inhibitor compounds of the invention against 250 protein kinases was determined via the radiometric HotSpot Kinase Profiling (Reaction Biology Corporation, Malvern, Pa.). Compounds were profiled at a final concentration of 1 μM compound against recombinant protein kinases in the presence of 10 μM ATP and data were expressed as percent inhibition. IC50 and/or percent inhibition at 1 μM compound values were determined for select compounds against a subset of kinases (MELK, MNK1, MNK2, mTOR, PIM-1. TRKC, and PDGFRα(D842V)).
as §2

In assay [4] the target is PIM-1 (Homo sapiens, UniProt P11309). Description: Radiometric HotSpot kinase assay, PIM-1. Type of assay: biochemical. Conditions: 1 μM compound, 10 μM ATP. On the procedure:
as §3, §2

Assay [5] addresses PDGFRα(D842V) (Homo sapiens, UniProt P16234, D842V). Description: Radiometric HotSpot kinase assay, PDGFRα(D842V). Type of assay: biochemical. On the procedure:
as §3, §2

For assay [6], the system named is HCT116 colorectal carcinoma cells. In words: Caspase-GLO 3/7 assay, HCT116. Conditions: Homo sapiens, HCT-116, 24 hours, CaspaseGLO. Type of assay: cell-based.
Description: Caspase-GLO 3/7 Assay: To determine the ability of the PI3K inhibitor compounds of the invention to induce programmed cell death (apoptosis), caspase activity was monitored as an indicator of apoptosis. Human HCT116 colorectal carcinoma and PANC-1 pancreatic carcinoma cells were plated at 2000-8000 cells per well in white 96-well microplates and allowed to attach overnight. The following day the medium was removed by aspiration and the cells were washed once with 200 μL of DMEM containing 0.5% (v/v) FBS (assay medium). The cells were then incubated in 100 μL of assay medium containing increasing concentrations of the PI3K inhibitor compounds (from 0.003 μM to 10.0 μM in half-log dilutions) for 24 to 72 hours. Caspase activity was detected using the Caspase-GLO 3/7 assay (Promega) according to the manufacturer's instructions and measured on a Spectramax M5 multi-detection microplate reader (Molecular Devices Corp.). EC50 values were calculated via non-linear regression using GraphPad Prism data analysis software.
HCT116 cells were treated overnight with a pyrazoloquinoline compound of the invention, or with a commercially available dual PI3K(α,β,δ,γ)/mTOR inhibitor, or with a commercially available PI3K(α,β,δ,γ)-only inhibitor at concentrations of 0.5, 1.0 and 5.0 μM.

We go through 16 compounds from US20110212053A1, “PHOSPHATIDYLINOSITOL 3 KINASE INHIBITORS” (priority 2008, published 2011).

The structures appear in SMILES notation. Where “and” joins values, the source holds several entries; their conditions need not be identical. Identical values can stand only once.

PIM-1, sequence (P11309 whole entry): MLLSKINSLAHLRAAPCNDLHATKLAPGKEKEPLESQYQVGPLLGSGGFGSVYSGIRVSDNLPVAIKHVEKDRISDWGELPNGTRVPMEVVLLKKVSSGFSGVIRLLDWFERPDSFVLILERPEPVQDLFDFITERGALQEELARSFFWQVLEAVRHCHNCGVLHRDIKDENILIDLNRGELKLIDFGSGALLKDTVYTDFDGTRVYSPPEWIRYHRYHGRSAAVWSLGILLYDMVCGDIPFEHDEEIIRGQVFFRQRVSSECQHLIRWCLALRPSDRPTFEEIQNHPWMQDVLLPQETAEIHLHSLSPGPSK
T2 sequence (Q14680 whole entry): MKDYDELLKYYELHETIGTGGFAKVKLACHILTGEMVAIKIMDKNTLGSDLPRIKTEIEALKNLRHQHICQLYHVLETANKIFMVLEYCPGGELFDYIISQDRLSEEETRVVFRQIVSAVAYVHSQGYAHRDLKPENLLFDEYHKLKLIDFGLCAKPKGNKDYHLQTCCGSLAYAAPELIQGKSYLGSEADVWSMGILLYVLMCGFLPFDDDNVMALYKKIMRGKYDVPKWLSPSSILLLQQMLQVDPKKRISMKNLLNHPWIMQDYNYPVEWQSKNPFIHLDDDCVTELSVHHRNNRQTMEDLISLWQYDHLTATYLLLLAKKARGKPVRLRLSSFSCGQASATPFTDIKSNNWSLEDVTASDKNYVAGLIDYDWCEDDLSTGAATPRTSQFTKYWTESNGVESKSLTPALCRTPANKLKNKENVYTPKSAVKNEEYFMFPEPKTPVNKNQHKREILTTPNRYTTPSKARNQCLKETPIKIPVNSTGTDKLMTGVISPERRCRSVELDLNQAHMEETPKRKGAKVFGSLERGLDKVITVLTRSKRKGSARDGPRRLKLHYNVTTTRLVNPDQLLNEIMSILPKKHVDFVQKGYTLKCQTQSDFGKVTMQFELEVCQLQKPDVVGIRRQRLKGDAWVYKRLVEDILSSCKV
TRKC, sequence (Q16288 32-839): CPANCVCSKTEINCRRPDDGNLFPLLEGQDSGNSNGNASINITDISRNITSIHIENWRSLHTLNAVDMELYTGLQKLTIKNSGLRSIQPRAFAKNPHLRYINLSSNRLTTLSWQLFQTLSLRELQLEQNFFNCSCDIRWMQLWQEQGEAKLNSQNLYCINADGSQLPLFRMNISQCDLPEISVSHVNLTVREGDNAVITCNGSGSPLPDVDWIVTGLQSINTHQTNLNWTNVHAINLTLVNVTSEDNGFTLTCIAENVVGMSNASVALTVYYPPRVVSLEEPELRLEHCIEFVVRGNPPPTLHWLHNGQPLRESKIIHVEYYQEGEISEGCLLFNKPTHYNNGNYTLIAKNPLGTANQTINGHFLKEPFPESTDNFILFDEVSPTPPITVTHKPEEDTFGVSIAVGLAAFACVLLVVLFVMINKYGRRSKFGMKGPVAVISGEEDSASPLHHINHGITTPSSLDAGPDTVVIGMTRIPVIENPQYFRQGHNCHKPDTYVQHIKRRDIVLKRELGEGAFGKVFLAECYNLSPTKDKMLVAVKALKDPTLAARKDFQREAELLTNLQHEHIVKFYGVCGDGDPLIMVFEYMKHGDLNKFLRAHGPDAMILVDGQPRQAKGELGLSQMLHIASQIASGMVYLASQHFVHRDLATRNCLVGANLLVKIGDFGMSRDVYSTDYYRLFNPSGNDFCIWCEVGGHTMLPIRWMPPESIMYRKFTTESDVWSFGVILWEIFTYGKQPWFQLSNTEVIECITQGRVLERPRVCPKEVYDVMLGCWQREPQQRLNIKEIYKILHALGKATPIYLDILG
PDGFRα(D842V), sequence (P16234 24-1089 D842V): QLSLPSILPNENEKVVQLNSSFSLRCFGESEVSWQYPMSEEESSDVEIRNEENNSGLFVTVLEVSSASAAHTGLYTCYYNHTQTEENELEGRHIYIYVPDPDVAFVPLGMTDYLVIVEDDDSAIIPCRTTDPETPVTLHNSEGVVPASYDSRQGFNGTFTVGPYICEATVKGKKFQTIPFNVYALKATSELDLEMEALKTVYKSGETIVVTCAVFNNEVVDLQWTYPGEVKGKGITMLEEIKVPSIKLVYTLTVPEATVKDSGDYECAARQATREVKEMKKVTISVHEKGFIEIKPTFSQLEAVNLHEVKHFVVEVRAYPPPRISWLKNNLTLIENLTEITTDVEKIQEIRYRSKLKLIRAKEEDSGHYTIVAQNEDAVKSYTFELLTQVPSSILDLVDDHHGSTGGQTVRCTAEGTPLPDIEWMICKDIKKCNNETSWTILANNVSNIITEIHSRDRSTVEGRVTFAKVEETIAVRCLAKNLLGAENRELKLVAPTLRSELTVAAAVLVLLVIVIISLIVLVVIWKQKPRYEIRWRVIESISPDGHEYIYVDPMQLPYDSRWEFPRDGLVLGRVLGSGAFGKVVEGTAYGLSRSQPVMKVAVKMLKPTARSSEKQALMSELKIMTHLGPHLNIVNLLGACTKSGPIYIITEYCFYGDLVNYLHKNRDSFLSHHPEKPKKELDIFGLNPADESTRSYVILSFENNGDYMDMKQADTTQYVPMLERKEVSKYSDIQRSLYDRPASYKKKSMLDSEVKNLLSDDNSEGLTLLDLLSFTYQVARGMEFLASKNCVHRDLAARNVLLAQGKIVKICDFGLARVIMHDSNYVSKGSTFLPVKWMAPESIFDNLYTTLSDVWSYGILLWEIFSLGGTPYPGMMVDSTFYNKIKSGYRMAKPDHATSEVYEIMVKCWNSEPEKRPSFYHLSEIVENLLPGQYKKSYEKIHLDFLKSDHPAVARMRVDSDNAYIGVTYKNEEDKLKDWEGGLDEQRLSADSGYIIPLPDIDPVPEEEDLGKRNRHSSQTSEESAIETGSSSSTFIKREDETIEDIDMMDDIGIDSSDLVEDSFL
T1 sequence (P42336 whole entry): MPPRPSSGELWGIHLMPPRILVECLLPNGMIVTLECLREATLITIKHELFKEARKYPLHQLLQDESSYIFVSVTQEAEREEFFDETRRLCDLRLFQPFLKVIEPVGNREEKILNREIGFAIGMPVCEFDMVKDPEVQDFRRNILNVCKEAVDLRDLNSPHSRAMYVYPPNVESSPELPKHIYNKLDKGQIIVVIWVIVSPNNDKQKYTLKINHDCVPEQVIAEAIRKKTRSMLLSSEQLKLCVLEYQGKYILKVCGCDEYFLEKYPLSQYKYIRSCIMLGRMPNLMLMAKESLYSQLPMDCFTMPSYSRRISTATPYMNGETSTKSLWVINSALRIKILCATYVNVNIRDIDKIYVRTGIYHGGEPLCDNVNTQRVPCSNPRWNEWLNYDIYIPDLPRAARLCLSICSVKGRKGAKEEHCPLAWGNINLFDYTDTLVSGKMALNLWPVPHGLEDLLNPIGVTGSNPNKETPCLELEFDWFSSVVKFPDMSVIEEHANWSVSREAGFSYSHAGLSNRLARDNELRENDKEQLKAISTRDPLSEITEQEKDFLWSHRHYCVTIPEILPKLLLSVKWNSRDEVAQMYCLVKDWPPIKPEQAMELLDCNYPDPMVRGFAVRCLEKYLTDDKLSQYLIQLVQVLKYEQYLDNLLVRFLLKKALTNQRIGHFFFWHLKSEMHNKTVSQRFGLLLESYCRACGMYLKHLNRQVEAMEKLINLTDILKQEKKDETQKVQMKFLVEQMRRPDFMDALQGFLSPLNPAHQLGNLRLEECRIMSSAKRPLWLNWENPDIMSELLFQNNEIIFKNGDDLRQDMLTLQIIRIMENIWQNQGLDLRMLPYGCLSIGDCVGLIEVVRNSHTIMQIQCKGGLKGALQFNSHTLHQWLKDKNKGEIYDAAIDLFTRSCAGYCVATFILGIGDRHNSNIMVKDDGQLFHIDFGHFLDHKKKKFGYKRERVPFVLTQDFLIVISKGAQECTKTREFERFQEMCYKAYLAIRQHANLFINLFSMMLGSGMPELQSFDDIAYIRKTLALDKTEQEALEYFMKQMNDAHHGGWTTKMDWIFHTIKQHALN
T1 sequence (P27986 whole entry partner): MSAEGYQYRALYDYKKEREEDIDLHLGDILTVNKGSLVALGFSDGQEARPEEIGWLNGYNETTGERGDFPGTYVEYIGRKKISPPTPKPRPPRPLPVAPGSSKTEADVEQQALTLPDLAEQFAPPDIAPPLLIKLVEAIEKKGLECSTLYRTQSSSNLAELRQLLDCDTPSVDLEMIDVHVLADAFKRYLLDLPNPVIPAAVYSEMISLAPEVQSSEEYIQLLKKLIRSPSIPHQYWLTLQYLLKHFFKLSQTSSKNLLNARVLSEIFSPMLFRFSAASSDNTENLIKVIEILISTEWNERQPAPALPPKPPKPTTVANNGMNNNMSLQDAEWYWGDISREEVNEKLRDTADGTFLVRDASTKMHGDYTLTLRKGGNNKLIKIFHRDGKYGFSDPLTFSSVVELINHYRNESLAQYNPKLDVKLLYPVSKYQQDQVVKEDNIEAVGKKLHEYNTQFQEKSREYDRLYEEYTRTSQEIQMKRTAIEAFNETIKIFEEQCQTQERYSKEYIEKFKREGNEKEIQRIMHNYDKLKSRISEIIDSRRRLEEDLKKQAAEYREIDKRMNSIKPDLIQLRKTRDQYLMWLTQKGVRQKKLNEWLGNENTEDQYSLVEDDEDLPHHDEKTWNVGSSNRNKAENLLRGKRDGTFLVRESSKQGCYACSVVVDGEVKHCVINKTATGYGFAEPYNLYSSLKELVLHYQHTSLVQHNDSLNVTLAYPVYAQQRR

Take `CC(C)(C#N)c1ccc(-c2n[nH]c3cnc4ccc(-c5cncnc5)cc4c23)cc1` [Compound 1108, 2-methyl-2-(4-(8-(pyrimidin-5-yl)-3H-pyrazolo[3,4-c]quinolin-1-yl)phenyl)propanenitrile]: the IC50 in assay [1] was less than 10 nM; in assay [2], 12 to 20 nM and > 30 nM; in assay [5], more than 100 nM. For the same compound, the inhibition at 1 µM is more than 97% in assay [3] and 60 to 85% in assay [4].
With `CC(C)(C#N)c1ccc(-c2n[nH]c3cnc4ccc(-c5cc(F)cc(F)c5)cc4c23)cc1` [Compound 1112, 2-(4-(8-(3,5-difluorophenyl)-3H-pyrazolo[3,4-c]quinolin-1-yl)phenyl)-2-methylpropanenitrile], the IC50 in assay [2] is more than 30 nM; in assay [5], more than 100 nM. For the same compound, in assay [3], the inhibition at 1 µM was not below 75%.
As to `CN[C@@H]1C[C@H]2O[C@@](C)([C@@H]1OC)n1c3ccccc3c3c4c(c5c6ccccc6n2c5c31)C(=O)NC4` [staurosporine], a half-maximal response in assay [6] (EC50) required 7 nM. In other words, the single-digit nanomolar range.
The compound `Cc1ccc(-c2ccc3ncc4[nH]nc(-c5ccc(C(C)(C)C#N)cc5)c4c3c2)cc1` [Compound 1126, 2-methyl-2-(4-(8-p-tolyl-3H-pyrazolo[3,4-c]quinolin-1-yl)phenyl)propanenitrile] came in with an IC50 in assay [2] of more than 30 nM.
On to `CC(C)(C#N)c1ccc(-c2n[nH]c3cnc4ccc(-c5ccn6ncnc6c5)cc4c23)cc1` [Compound 1111], for which the IC50 in assay [1] is more than 20 nM; in assay [2], 20 to 30 nM. For the same compound, the inhibition at 1 µM in assay [3] is more than 97%; in assay [4] it was more than 95%.
As for `CC(C)(C#N)c1ccc(-c2n[nH]c3cnc4ccc(-c5ccc6c(c5)CC=N6)cc4c23)cc1` [Compound 1114, 2-(4-(8-(3H-indol-5-yl)-3H-pyrazolo[3,4-c]quinolin-1-yl)phenyl)-2-methylpropanenitrile], the IC50 was more than 20 nM in assay [1], more than 30 nM in assay [2] and more than 100 nM in assay [5].
Consider `Cc1cccc(-c2ccc3ncc4[nH]nc(-c5ccc(C(C)(C)C#N)cc5)c4c3c2)c1` [Compound 1123, 2-methyl-2-(4-(8-m-tolyl-3H-pyrazolo[3,4-c]quinolin-1-yl)phenyl)propanenitrile], for which the IC50 is more than 30 nM in assay [2] and more than 1000 nM in assay [5]. Also, the inhibition at 1 µM in assay [3] is more than 60%; in assay [4] it was 50 to 60%.
As for `COc1ccc(-c2ccc3ncc4[nH]nc(-c5ccc(C(C)(C)C#N)cc5)c4c3c2)cn1` [Compound 1118, 2-(4-(8-(6-methoxypyridin-3-yl)-3H-pyrazolo[3,4-c]quinolin-1-yl)phenyl)-2-methylpropanenitrile], the results for the IC50 in assay [1], in assay [2] and in assay [5] were less than 10 nM, more than 30 nM and more than 1000 nM, respectively.
In turn, `Cc1ccccc1-c1ccc2ncc3[nH]nc(-c4ccc(C(C)(C)C#N)cc4)c3c2c1` [Compound 1124, 2-methyl-2-(4-(8-o-tolyl-3H-pyrazolo[3,4-c]quinolin-1-yl)phenyl)propanenitrile] came in with an IC50 in assay [2] of more than 30 nM. In addition, the inhibition at 1 µM in assay [3] was more than 60%.
In the case of `COc1cccc(-c2ccc3ncc4[nH]nc(-c5ccc(C(C)(C)C#N)cc5)c4c3c2)c1` [Compound 1115, 2-(4-(8-(3-methoxyphenyl)-3H-pyrazolo[3,4-c]quinolin-1-yl)phenyl)-2-methylpropanenitrile], the IC50 in assay [2] is more than 30 nM; in assay [5], more than 1000 nM. Moreover, the inhibition at 1 µM is more than 60% in assay [3] and 60 to 85% in assay [4].
In assay [1], `CC(C)(C#N)c1ccc(-c2n[nH]c3cnc4ccc(-c5cccc(Nc6ccccn6)c5)cc4c23)cc1` [Compound 1120, 2-methyl-2-(4-(8-(3-(pyridin-2-ylamino)phenyl)-3H-pyrazolo[3,4-c]quinolin-1-yl)phenyl)propanenitrile] showed a half-inhibitory concentration (IC50) of more than 20 nM.
For the compound `CC(C)(C#N)c1ccc(-c2n[nH]c3cnc4ccc(-c5cccc(Cl)c5)cc4c23)cc1` [Compound 1113, 2-(4-(8-(3-chlorophenyl)-3H-pyrazolo[3,4-c]quinolin-1-yl)phenyl)-2-methylpropanenitrile], the IC50 was more than 30 nM in assay [2] and more than 100 nM in assay [5]. The inhibition at 1 µM in assay [3] was not below 70%; in assay [4], 50 to 60%.
Regarding `COc1ccc(-c2ccc3ncc4[nH]nc(-c5ccc(C(C)(C)C#N)cc5)c4c3c2)cc1` [Compound 1117, 2-(4-(8-(4-methoxyphenyl)-3H-pyrazolo[3,4-c]quinolin-1-yl)phenyl)-2-methylpropanenitrile], the IC50 in assay [2] is more than 30 nM. The values for the inhibition at 1 µM in assay [3] and in assay [4] were more than 50% and 60 to 85%, respectively.
Regarding `CC(C)(C#N)c1ccc(-c2n[nH]c3cnc4ccc(-c5ccccc5)cc4c23)cc1` [Compound 1125, 2-methyl-2-(4-(8-phenyl-3H-pyrazolo[3,4-c]quinolin-1-yl)phenyl)propanenitrile], the IC50 was more than 30 nM in assay [2] and more than 1000 nM in assay [5]. Also, the inhibition at 1 µM in assay [3] was not below 75%; in assay [4], 60 to 85%.
On to `CC(C)(C#N)c1ccc(-c2n[nH]c3cnc4ccc(-c5cccc(Nc6ccncc6)c5)cc4c23)cc1` [Compound 1121, 2-methyl-2-(4-(8-(3-(pyridin-4-ylamino)phenyl)-3H-pyrazolo[3,4-c]quinolin-1-yl)phenyl)propanenitrile], for which the IC50 is more than 20 nM in assay [1], 12 to 20 nM in assay [2] and more than 100 nM in assay [5]. The values for the inhibition at 1 µM in assay [3] and in assay [4] were more than 97% and more than 95%, respectively.
For the compound `CC(C)(C#N)c1ccc(-c2n[nH]c3cnc4ccc(-c5ccc(F)cc5)cc4c23)cc1` [Compound 1116, 2-(4-(8-(4-fluorophenyl)-3H-pyrazolo[3,4-c]quinolin-1-yl)phenyl)-2-methylpropanenitrile], the IC50 in assay [2] is more than 30 nM. For the same compound, the inhibition at 1 µM in assay [3] is not below 75%; in assay [4], 60 to 85%.
